Key:
[1] = system: Poliovirus type 1 Chat strain
[2] = system: Human adenovirus type 5 Adenoid 75 strain
[3] = system: HEp-2 cells

## zinc pyrithione
[1]
  Reduction in virus titration: at least 4 log
  Reduction ratio in virus titration: 4.5 Logarithmic TCID50
  Virus titration with disinfectant: 1.5 Logarithmic TCID50
[2]
  Activity against the virus: 99.9%
  Reduction in virus titration: at least 4 log
  Reduction ratio in virus titration: 4.0 Logarithmic TCID50
  Virus titration with disinfectant: 1.0 Logarithmic TCID50
[3]
  Cytopathic effect on the cells in the cell culture: showed cytopathic effect
  Lowest ratio of zinc pyrithione solution which does not show cytopathic effect: 0.01%

— patent US20170135339A1, “COATING FORMULATION FOR SEED AND SURFACE STERILIZATION” (priority 2015, published 2017)
